This is an account of results in ChEMBL document CHEMBL1151511, “Structure-based design of an inhibitor modeled at the substrate active site of aldose reductase” (Bioorg Med Chem Lett, 1997).

Assay [1] has as its target T1, Aldo-keto reductase family 1 member B1 (Bos taurus, UniProt P16116). The assay is described as follows: Inhibitory activity of compound against modified enzyme form of S-glutathionyl Aldose reductase.
The target of assay [2] is T1, Aldo-keto reductase family 1 member B1. The assay is described as follows: Tested for inhibition of bovine lens Aldose reductase (ALR2), expressed as IC50.
Assay [3] shares this target. The assay is described as follows: Inhibitory activity of compound against modified enzyme form of S-glutathionyl Aldose reductase; Inactive.

In general, IC50 refers to the point on the concentration scale where inhibition reaches its midpoint.

On to `O=C(O)Cn1nc2c(c(Cc3nc4cc(C(F)(F)F)ccc4s3)c1=O)CCc1ccccc1-2`, for which the figures for the IC50 in assay [1] and in assay [2] were 17 µM and 0.15 µM, respectively.
With `O=C(O)Cn1nc2c(cc1=O)CCc1ccccc1-2`, the IC50 entry was “Not Active” in assay [3] and 12 µM in assay [2].
